Assay results: patent US20250375129A1, “USE OF BLINK REFLEX FOR ATTENTION-DEFICIT/HYPERACTIVITY DISORDER (ADHD) RESPONSE MONITORING AND/OR TREATMENT SELECTION” (Blinktbi, Inc., priority 2022, published 2025)
“Also recorded” adds a separate entry of the source.

Tested on: blink reflex
Experiment: Blink reflex response parameters in ADHD patients before and 1 hour after their prescribed ADHD medication versus non-ADHD controls (pilot study)
Type: in vivo, humans
Settings: for Max closing velocity, effect of medication type (in words): compared to controls and participants before taking their ADHD medications; for Delta 30, Estimate of Fixed Effects / Excursions, Estimate of Fixed Effects / Initial Velocity, Estimate of Fixed Effects / Max Closing Velocity, Estimate of Fixed Effects / Differential Latency, Estimate of Fixed Effects: Model 3 mixed model by medication type; for Delta 30, Estimate of Fixed Effects / Excursions, Estimate of Fixed Effects / Initial Velocity, Estimate of Fixed Effects / Max Closing Velocity, Estimate of Fixed Effects / Differential Latency, Estimate of Fixed Effects / Max Closing Velocity, Estimate of Fixed Effects, further analysis: relative to Med_type = 4 (Control); for Differential Latency, Estimate of Fixed Effects: AMP n=20, ATX n=2, MPH n=2; for Max Closing Velocity, Estimate of Fixed Effects, further analysis: Model 3 with confounders hours of sleep, urine specific gravity and age

Row | SMILES | Delta 30, effect of medication type (in words) (Model 3) | Differential Latency, effect of medication type (in words) (Model 3) | Max closing velocity, effect of medication type (in words) (Model 3) | Delta 30, Estimate of Fixed Effects | Excursions, Estimate of Fixed Effects | Initial Velocity, Estimate of Fixed Effects | Max Closing Velocity, Estimate of Fixed Effects | Differential Latency, Estimate of Fixed Effects | Max Closing Velocity, Estimate of Fixed Effects, further analysis | Excursions, effect of medication type (in words) (Model 3) | Initial Velocity, effect of medication type (in words) (Model 3) | Blink reflex parameters predictive for treatment type (in words) (Model 3 conclusion, ATX=2, MPH=2, AMP=20 participants)
1 | CNCC[C@@H](Oc1ccccc1C)c1ccccc1 [ATX] | statistically significant | statistically significant | associated with an increase | −4.184 | 13.866 | .532 | 2.659 | −2.456 | 2.277 |  |  | 
2 | COC(=O)C(c1ccccc1)C1CCCCN1 (stereo not drawn) [MPH, methylphenidate] | statistically significant | statistically significant | associated with an increase | −1.756 | 14.707 | .578 | 1.378 | −0.980 | 1.265 | statistically significant | statistically significant; also recorded: slight increase | particularly predictive
